The values below come from PMC7385619, “A triple action CDK4/6-PI3K-BET inhibitor with augmented cancer cell cytotoxicity” (Cell Discovery, 2020).

What all share (type): cell-based
Assay [1] deals with neuroblastoma cells (CHLA-255, CHLA-136, and SMS-KNCR). Put plainly: Cell viability (cytotoxicity) assay, neuroblastoma cells. Conditions: Homo sapiens, 48 hours, CCK8 or Alamar Blue, curves of Fig. 1f-j, read-out: Half maximal inhibitory concentration (IC50) in cell line cytotoxicity assays, Neuroblastoma. In general terms: Alamar Blue is a resazurin reagent that responds to reducing activity.

Assay [2] deals with Hepatocellular carcinoma cells (Hep3B, HepG2, and Huh7). The experiment in a line: Cell viability (cytotoxicity) assay, hepatocellular carcinoma cells. Conditions: Homo sapiens; 48 hours, CCK8 or Alamar Blue; curves of Fig. 1f-j; read-out: Half maximal inhibitory concentration (IC50) in cell line cytotoxicity assays, Hepatocellular Carcinoma.
For assay [3], the system named is mantle cell lymphoma (Granta-519, Mino, and Jeko-1). Put plainly: Cell viability (cytotoxicity) assay, mantle cell lymphoma cells. As to conditions: Homo sapiens; 48 hours, CCK8 or Alamar Blue; curves of Fig. 1f-j; read-out: Half maximal inhibitory concentration (IC50) in cell line cytotoxicity assays, Mantle Cell Lymphoma.

In the case of `CC(=O)c1c(C)c2cnc(Nc3ccc(N4CCNCC4)cn3)nc2n(C2CCCC2)c1=O` [Palbociclib, reference compound], the IC50 stood at 9.2 µM in assay [1], 11.9 µM in assay [2] and 8.4 µM in assay [3].
